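Dose response: 5 concentrations. Exposure: 48 h. Format: 96-well plates. Endpoint: linear interpolation; highest concentration if not reached. GI50 is the concentration that inhibits growth by half.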 The source made the active and inactive calls. No stated cut-off is given here; in the data, active = GI50 up to about 1.1 µM and inactive = higher. Where a SMILES comes first, the peptide text is derived from it. The star is where a group is joined. X33 = O=C(c1ccc(-c2ccc(Cl)cc2Cl)o1)*
Key:
Assay in all cases: growth of human tumour cells (NCI), 48 h
[1] = test system: MDA-MB-435
[2] = test system: SF-268
[3] = test system: NCI-H522
[4] = test system: MDA-N
[5] = test system: SK-OV-3
[6] = test system: A549
[7] = test system: HOP-92
[8] = test system: SF-295
[9] = test system: KM12
[10] = test system: SK-MEL-2
[11] = test system: COLO 205
[12] = test system: SK-MEL-28
[13] = test system: MDA-MB-231
[14] = test system: NCI/ADR-RES
[15] = test system: EKVX
[16] = test system: OVCAR-8
[17] = test system: TK-10
[18] = test system: SF-539
[19] = test system: K562
[20] = test system: 786-0

Measured: GI50

Cc1cc(S(=O)(=O)Nc2nc(Nc3ccc4ccccc4c3)n[nH]2)c(S)cc1Cl
inactive: [1] 24.9 µM | [2] 72.1 µM | [3] 30.3 µM | [4] 13.7 µM | [5] 46.2 µM | [6] 55.7 µM | [7] 52.5 µM | [8] 30.2 µM | [9] 25.4 µM | [10] 24 µM | [11] 57.8 µM | [12] > 100 µM | [13] 92.9 µM | [14] > 100 µM | [15] > 100 µM | [16] 64.3 µM | [17] > 100 µM | [18] 14 µM | [19] > 100 µM | [20] 47.3 µM

CCC(C)C(NC(=O)CNC(=O)C(Cc1ccccc1)NC(=O)C1CCCN1C(=O)c1ccc(-c2ccc(Cl)cc2Cl)o1)C(=O)OC (stereo not given) (X33-PFGI-OMe; configuration not given here)
inactive: [1] 38.9 µM | [2] 69.2 µM | [3] 29.8 µM | [4] 23.4 µM | [5] 89.5 µM | [6] 23.9 µM | [7] 11.2 µM | [8] 22 µM | [9] 37.5 µM | [10] 60.5 µM | [11] 31.6 µM | [12] 27.3 µM | [13] 24.7 µM | [14] 36.7 µM | [15] 24.1 µM | [16] 27.4 µM | [17] 51.9 µM | [18] 27.2 µM | [19] 22 µM | [20] 27.1 µM

Source: ChEMBL document CHEMBL1201862, “PubChem BioAssay data set” (2004)
